Legend:
recombinant human BACE-1 = biological target: T1, recombinant human BACE-1 (Homo sapiens, UniProt P56817); experiment: FRET-based enzyme assay, BACE-1 inhibition; format: biochemical
T1 construct: purchased R&D Systems (Minneapolis, MN, USA)

GMR < APP/BACE-1 flies [1] = experiment: Congo red staining of amyloid plaques in compound eyes; format: in vivo, Drosophila melanogaster; conditions: 5- and 15-day-old flies
Method: Congo red staining was performed to detect the amyloid plaques in the Drosophila AD model. The paraffin-embedded sections described above were deparaffinized and then stained using NovaUltra Special Stain Kits (IHC World, Woodstock, MD, USA) according to the manufacturer’s instructions. Finally, the sections were dehydrated and mounted with mounting medium. The images were observed and captured using an EZ4 HD stereo microscope.

human BACE-1 = experiment: Western blot, BACE-1 protein in heads of elav < APP/BACE-1 flies; format: in vivo, Drosophila melanogaster; conditions: 20-day-old males
Method: (§1) The elav < APP/BACE-1 flies were cultured from the egg stage, as described previously. The lysates were obtained from the heads of 50 male flies (20 days old) by placing the heads in 100 μL RIPA buffer (pH 8.0) containing a 1% protease inhibitor cocktail. The controls received 0.1% DMSO. The lysates were centrifuged at 14,000 rpm for 30 min at 4 °C. The protein content of the supernatant was determined using a Bradford Protein Assay kit (Sigma-Aldrich) and BSA was used as the standard. The total proteins (30 μg/sample for APP and BACE-1 detection; 70 μg/sample for Aβ detection) were mixed with an equal volume of 5× sample buffer[81] containing 40 mM of DL-dithiothreitol, boiled for 10 min, and then loaded onto 8, 10, and 12% sodium dodecyl sulfate-polyacrylamide gels using a Mini-Protean 3 electrophoresis cell (Bio-Rad, Hercules, CA, USA) for APP, APP-CTF (APP-αCTF and APP-βCTF) and AICD, BACE-1, and Aβ detection, respectively. After electrophoresis at 110 V in 2 h, the proteins from the gels were transferred onto a polyvinyl difluoride membrane (Pall Corporation, Pensacola, FL, USA) using an electroblotting apparatus. The membrane was then blocked with 5% skim milk (BD Difco, Flanklin Lakes, NJ, USA) in PBS containing 0.1% (v/v) Tween-20 (0.1% PBS-T) at room temperature for 1 h, and further incubated overnight at 4 °C with a 1:4,000 dilution of an anti-APP C-terminal antibody to detect the cleaved APP product, a 1:1,000 dilution of anti-BACE-1, and a 1:1,000 dilution of anti-amyloid (4G8). After washing with 0.1% PBS-T three times at 10 min intervals, the membranes were further incubated for 2 h with a goat anti-rabbit IgG H&L (HRP) secondary antibody at a1:4,000 dilution for APP and BACE-1 and a goat anti-mouse lgG-HRP at a 1:5,000 dilution for β-amyloid. […] The differences in protein expression were quantified using a Molecular Imager Gel Doc XR system (Bio-Rad, Hercules, CA, USA) and normalized to actin expression on the same membrane. The results are expressed as the means ± SEs of duplicate samples from three independent experiments.

elav < APP/BACE-1 flies [2] = experiment: Lifespan assay; format: in vivo, Drosophila melanogaster; conditions: males
Method: Groups of 20 newly emerged male elav < APP/BACE-1 flies, cultured in vials as stated previously, were separately transferred to vials containing media supplemented with acacetin (100, 300, and 500 μM) every 4 days. The controls received 0.1% DMSO. The median life time (T1/2) was defined as the time when the survivor function equaled 50%, because median survivorship is a more reliable index than mean survival time, as described by Chakraborty and colleagues. All treatments were repeated 10 times using 20 males per replicate.

APP-CTF = experiment: Western blot, APP-CTF in heads of elav < APP/BACE-1 flies; format: in vivo, Drosophila melanogaster; conditions: 100, 300, and 500 μM; 20-day-old males
Method: The elav < APP/BACE-1 flies were cultured from the egg stage, as described previously. The lysates were obtained from the heads of 50 male flies (20 days old) by placing the heads in 100 μL RIPA buffer (pH 8.0) containing a 1% protease inhibitor cocktail. The controls received 0.1% DMSO. The lysates were centrifuged at 14,000 rpm for 30 min at 4 °C. The protein content of the supernatant was determined using a Bradford Protein Assay kit (Sigma-Aldrich) and BSA was used as the standard. The total proteins (30 μg/sample for APP and BACE-1 detection; 70 μg/sample for Aβ detection) were mixed with an equal volume of 5× sample buffer[81] containing 40 mM of DL-dithiothreitol, boiled for 10 min, and then loaded onto 8, 10, and 12% sodium dodecyl sulfate-polyacrylamide gels using a Mini-Protean 3 electrophoresis cell (Bio-Rad, Hercules, CA, USA) for APP, APP-CTF (APP-αCTF and APP-βCTF) and AICD, BACE-1, and Aβ detection, respectively. […] The differences in protein expression were quantified using a Molecular Imager Gel Doc XR system (Bio-Rad, Hercules, CA, USA) and normalized to actin expression on the same membrane. The results are expressed as the means ± SEs of duplicate samples from three independent experiments.

elav < APP/BACE-1 flies [3] = experiment: Feeding assay (Acid red intake); format: in vivo, Drosophila melanogaster; conditions: 100, 300, and 500 μM; males; 2 h feeding
Method: The adult feeding assay was performed according to the methods of Wang et al.[33] and Bahadorani et al.[79]. Groups of 15 newly emerged male elav < APP/BACE-1 flies were cultured on standard media for 3 days and then starved for 20 h in vials containing three layers of Whatman no. 2 filter paper (Whatman, Maidstone, UK) soaked in DW. The flies were then transferred into vials containing media (with 0.2% Acid red) supplemented with acacetin (100, 300, and 500 μM) in 0.1% DMSO. The controls were fed with media supplemented with 0.2% Acid red and 0.1% DMSO. After 2 h of feeding, the abdomens were isolated and homogenized in 1 mL DW. After centrifugation (5000 rpm, 25 °C, 5 min), the optical density (OD) of the supernatant was measured at 505 nm, because this OD value is considered to index the amount of food intake by flies, as described by Min and Tatar[80]. All treatments were repeated three times using 15 males per replicate.

GMR < APP/BACE-1 flies [4] = experiment: Cason's trichrome staining of eye sections (photoreceptor degeneration); format: in vivo, Drosophila melanogaster; conditions: 100, 300, and 500 μM; 5- and 15-day-old males
Method: Cason’s trichrome staining was performed, as described by Wang et al.[33] and Perumalsamy et al.[77]. Briefly, the heads of 5- and 15-day-old male GMR < APP/BACE-1 flies, cultured in vials as stated previously, were fixed in a 4% paraformaldehyde buffer solution (pH 7.4) overnight at 4 °C, and paraffin-embedded preparations of the fly heads were then sectioned at 10 μm thickness using a HM 340E rotary microtome (Thermo Scientific Microm, Walldorf, Germany). The sections were dried at 40 °C overnight, subsequently deparaffinized with CitriSolv (Fisher Scientific, Fair Lawn, NJ, USA), and rehydrated using a series of ethanol solutions in phosphate-buffered saline (PBS). The rehydrated paraffin sections were soaked in Carson’s trichrome solution for 15 min, and the slides were gently swashed in tap water and subsequently rinsed three times in distilled water (DW). The excess water was removed with tissue paper, and the samples were mounted using Vectashield H-1000 mounting medium (Vector Laboratories, Burlingame, CA, USA).

[5] = system: APP intracellular domain (AICD); experiment: Western blot, AICD in heads of elav < APP/BACE-1 flies; format: in vivo, Drosophila melanogaster; conditions: 20-day-old males
Method: as §1

T1 sequence (P56817 46-501): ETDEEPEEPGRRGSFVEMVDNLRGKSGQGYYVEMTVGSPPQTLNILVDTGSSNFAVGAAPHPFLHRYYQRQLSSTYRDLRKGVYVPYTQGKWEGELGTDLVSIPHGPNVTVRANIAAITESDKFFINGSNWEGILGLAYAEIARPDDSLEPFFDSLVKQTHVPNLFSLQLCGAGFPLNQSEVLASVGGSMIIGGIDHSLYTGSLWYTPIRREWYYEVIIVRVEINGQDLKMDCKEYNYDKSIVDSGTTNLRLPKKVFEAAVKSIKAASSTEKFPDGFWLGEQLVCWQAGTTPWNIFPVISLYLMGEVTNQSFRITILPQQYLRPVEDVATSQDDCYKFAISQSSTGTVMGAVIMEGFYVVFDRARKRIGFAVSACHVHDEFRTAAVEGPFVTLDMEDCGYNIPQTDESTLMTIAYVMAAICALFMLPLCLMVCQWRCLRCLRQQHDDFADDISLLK

COc1ccc(-c2cc(=O)c3c(O)cc(O)cc3o2)cc1 [acacetin]
fold more potent inhibitor of BACE-1 than maslinic acid (recombinant human BACE-1; based on IC50 values): 5.5 fold
fold more potent inhibitor of BACE-1 than oleanolic acid (recombinant human BACE-1; based on IC50 values): 4.0 fold
IC50 (recombinant human BACE-1; pH 4.5, 1 h at 25 °C, read-out: IC50, μM (95% CL)): 88.5 µM
Slope ± SE (recombinant human BACE-1; slope of concentration-inhibition fit, listed as Natural acacetin): 0.4 ± 0.04
amyloid plaque deposits (GMR < APP/BACE-1 flies [1]; 500 μM): a few amyloid plaque deposits were also detected
number of amyloid deposits (GMR < APP/BACE-1 flies [1]; 100 and 300 μM): significantly suppressed the number of amyloid deposits
BACE-1 protein levels, % of the control levels (human BACE-1; 100 μM): 81%
BACE-1 protein levels, % of the control levels (human BACE-1; 300 μM): 75%
BACE-1 protein levels, % of the control levels (human BACE-1; 500 μM): 74%
median life time (T1/2) (elav < APP/BACE-1 flies [2]; 100 μM, vehicle 26 days, elav-Gal4/+ 36 days): 31 days
lifespan (elav < APP/BACE-1 flies [2]; 100, 300, and 500 μM, vs vehicle-fed transgenic flies): did not significantly increase the lifespan
median life time (T1/2) (elav < APP/BACE-1 flies [2]; 300 and 500 μM): did not significantly extend the T1/2
APP-CTF, % of the control levels (APP-CTF): approximately 80%
feeding (food intake) (elav < APP/BACE-1 flies [3]): did not significantly affect feeding
photoreceptor degeneration (GMR < APP/BACE-1 flies [4]): partially suppressed the photoreceptor degeneration
AICD levels, % of the control levels ([5]; 100 μM): 68%
AICD levels, % of the control levels ([5]; 300 μM): 27%
AICD levels, % of the control levels ([5]; 500 μM): 37%
